Laboratory results: patent US9283212B2, “Pharmaceutical preparation and delivery system” (PALMAYA PTY LTD, priority 2009, dated 2016)
Entries after “also recorded” stand apart in the source; their conditions may differ.

Legend:
[1] = test system: patients with addiction, chronic anxiety or sleep disorders; experiment: continuous subcutaneous infusion of flumazenil in patients (case study and observations); format: in vivo, human
Method: A solution of flumazenil in saline solution was prepared by dissolving 16 mg of flumazenil in 30 mL of saline and adjusting the pH to between 6.5 to 7.0 with a phosphate buffer, solution (pH 5.0). The final concentration of flumazenil in saline is 0.53 mg/mL.
A solution of flumazenil in saline was prepared as set out above. That is, a portion of 12 to 16 mg flumazenil in 30 mL of saline was prepared for the subcutaneous administration via a spring driven 30 mL pump. The pump used was a portable infusion Springfusor pump (O'Neil Balloon Infuser, ID: SBI-100; Go Medical Industries). The delivery rate of the flumazenil was in the order of 40 to 1000 μg/h.
A Springfusor pump connected to tubing and a butterfly cannula was set up, wherein the pump was loaded with 30 mL of flumazenil solution (0.53 mg/mL). The butterfly cannula was inserted into the patient's abdomen using standard techniques and the pump set to delivery flumazenil at a rate of 166 μg/h. After the initial four day (96 hour) administration, the pump was reloaded with a further 30 mL of flumazenil solution (0.53 mgmL) and delivery continued for a further four days (96 hours). The subcutaneous infusion continued for a total of three weeks.

[2] = test system: patient suffering from chronic anxiety; experiment: patient controlled subcutaneous pump, single dose, heart rate and anxiety; format: in vivo, human
Method: The heart rate and the body movement of the patient were recorded using standard equipment.

[3] = test system: patients with cravings for smoking; settings: patient controlled delivery, agent alone
Excerpt: In one experiment, flumazenil and naltrexone were mixed to capture the benefits of mixing a benzodiazepine antagonist and an opiate antagonist to be given in a pulsative manner when cravings were observed.

[4] = cited from earlier work
[5] = cited from earlier work; remark: listed apart in the source
[6] = test system: subjects with panic disorder, social anxiety or alcohol dependence; settings: cited from earlier work
[7] = test system: patients with addiction, chronic anxiety or sleep disorders; experiment: continuous subcutaneous infusion of flumazenil in patients (case study and observations); format: in vivo, human; settings: intravenous infusions below 80 μg/h
[8] = continuous subcutaneous infusion

CCOC(=O)c1ncn2c1CN(C)C(=O)c1cc(F)ccc1-2 [flumazenil]
panic attacks ([1]; after full treatment with subcutaneous infusion, one patient): gone
anticonvulsant effect ([1]; constant subcutaneous delivery of 166 μg/h): appears to be effective as an anticonvulsant
sleeping pulse rates ([1]; continuous infusion with or without opiate and cannabanoid antagonists, chronic anxiety disorders): reductions in sleeping pulse rates
anxiety levels / anxiety disorders [1, 8]: reduced; also recorded: marked improvements
cognitive function [1, 8]: improved cognitive functions; also recorded: appeared to improve daily
dependency on anti-psychotic drugs ([1]; continuous subcutaneous infusion 166 μg/h, one patient): decreased
sleep patterns / chronic sleep disorders ([1]; continuous subcutaneous infusion, 166 μg/h, greater than four days): better sleep patterns; also recorded: gradually improved; also recorded: good response rates
cravings for addictive substances (alcohol, smoking, amphetamines, opiates, benzodiazepines) ([1]; continuous subcutaneous infusion, during and after infusion): decreased and eventually were considered negligible; also recorded: reduced; also recorded: reduction in craving for alcohol
pulse rate ([2]; 60 minutes after single 1 mg subcutaneous dose, from close to 120 bpm before): 80 bpm
anxiety ([2]; single 1 mg dose via patient controlled subcutaneous pump): reduction in anxiety
symptoms of craving and anxiety [3]: decrease symptoms of craving and anxiety
solubility in acidic aqueous solutions ([4]; acidic aqueous solutions): slightly soluble
solubility in water ([4]; water): insoluble in water
half life ([5]; in vivo): very short half life
oral bioavailability ([5]; oral): low oral bioavailability
panic induction ([6]; bolus infusion of 2 mg in 10 minutes, subjects with panic disorder): can act as a specific panicogen
effect on social anxiety or alcohol-dependent subjects ([6]; intravenous infusion): no effect
anticonvulsant effect [7]: failed to stop epileptic convulsions
